Substitutions are numbered along the chain they refer to.
What was measured:
[1] = molecular target: T1, PHISH (Mus musculus, UniProt Q9QXT1); experiment: Competition binding of non-biotinylated lipids against biotinylated PtdIns-3,4,5-P3 on avidin beads; parameters: species or system murine; conditions: for relative affinity for PHISH in competition binding studies: FIG. 4B; for displacement of PHISH from PtdIns-3,4,5-P3-biotin bound to avidin beads: FIG. 4B legend, compared with PtdIns-4,5-P2
T1 construct: the gene for PHISH isolated from the expression screen encodes the entire protein; made in house; host or cells: in vitro transcription/translation (reticulocyte lysate) of a clone from a murine spleen cDNA library in pCS2(+)
T1 sequence (Q9QXT1 1-280): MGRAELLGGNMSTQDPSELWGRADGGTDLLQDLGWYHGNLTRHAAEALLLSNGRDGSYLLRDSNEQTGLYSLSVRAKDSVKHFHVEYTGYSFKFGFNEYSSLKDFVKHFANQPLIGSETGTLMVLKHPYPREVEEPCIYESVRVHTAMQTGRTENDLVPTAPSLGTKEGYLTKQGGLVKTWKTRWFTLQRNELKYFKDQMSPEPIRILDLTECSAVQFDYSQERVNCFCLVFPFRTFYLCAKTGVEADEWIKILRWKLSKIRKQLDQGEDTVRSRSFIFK
Experimental: (§1) Binding and Isolation of Radiolabeled In Vitro Translated Proteins with Biotinylated Phosphoinositides. Avidin beads (Ultralink immobilized Neutravidin™, Pierce Chemical) were washed twice with 5 volumes of wash/binding (WB) buffer (10 mM HEPES pH=7.4, 150 mM NaCl, 0.5% NP-40, 5 mM DTT). The beads were then reconstituted in 2×volume of WB buffer and the biotinylated phosphoinositide was added. Generally, 0.1 μl of 100 μM biotinylated lipid was bound per 1 μl of packed avidin beads. The biotinylated lipid was incubated with the beads for 1-2 hours at 4° C. with gentle agitation and then washed twice with 10×-bead volume of WB buffer to remove excess ligand. Control beads without biotinylated lipid were prepared in an identical manner but without the addition of the lipid. 5 μl of the ^35S-labelling reaction containing the in vitro transcribed/translated protein was then added to the tubes and the protein was allowed to bind for 2 hours at 4° C. with gentle agitation. The tubes were then centrifuged briefly, the beads were washed 2×with 0.5 ml WB buffer, and the bound proteins were eluted by boiling the beads in 20 μl Laemmli sample buffer containing 5% 2-mercaptoethanol. The proteins were then separated on a 13.75% SDS-PAGE gel. Following electrophoresis the gel was soaked in EnHance (Dupont/NEN) for 1 hour and then in a 7.5% w/v solution of PEG-3350 for 1 hour. The gel was then dried and subjected to autoradiography.
Competition Binding of Isolated Proteins for Non-biotinylated Lipids over Biotinylated Lipids. […] Binding was quantitated by measuring the intensities of bands from the autoradiogram or by scintillation counting of the eluted proteins in Laemmli sample buffer using Opti-fluor (Packard). Binding curves were modeled by the equation: […]
where % bound represents the quantity of protein bound to the biotinylated lipid coated beads in the presence of a concentration C of competing lipid. IC50 is the molar excess of competitor C required to reduce the % bound to 50% of its maximal value in the absence of competitor.
In Vitro Translation Expression Cloning. A murine spleen cDNA library containing 2×10^5 independent clones was divided into 1700 individual small pools. The cDNAs in this library had been cloned into the in vitro transcription vector pCS2(+) under control of the SP6 promoter. Individual cDNAs from positive pools were isolated from the other cDNAs of the pool using a 96-well format as described previously. The individual cDNAs were sequenced (Harvard Biopolymer Facility) and compared with known sequences by searching GenBank databases.

[2] = molecular target: T2, PH domain of EST684797 (Homo sapiens, UniProt Q9UN19); conditions: literature; cited from earlier work
T2 sequence (Q9UN19 164-259): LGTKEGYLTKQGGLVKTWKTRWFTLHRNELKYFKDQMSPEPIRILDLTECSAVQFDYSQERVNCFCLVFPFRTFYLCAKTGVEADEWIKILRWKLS

[3] = molecular target: T3, PH domain of PDK1 (Homo sapiens, UniProt O15530); conditions: literature, relative affinities; cited from earlier work
T3 sequence (O15530 459-550 limits assumed): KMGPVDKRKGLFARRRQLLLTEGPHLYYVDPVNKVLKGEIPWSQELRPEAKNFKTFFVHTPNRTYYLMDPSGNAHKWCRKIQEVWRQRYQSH

[4] = molecular target: PH domain of Akt (Homo sapiens, UniProt P31749); conditions: two published studies; cited from earlier work
[5] = molecular target: T4, PDK1 (C-terminal fragment with PH domain) (Mus musculus, UniProt Q9Z2A0); experiment: Binding of 35S-labeled in vitro translated protein to avidin beads pre-bound with biotinylated phosphoinositide; parameters: species or system murine; conditions: FIG. 3A top panel right
T4 construct: the first in-frame AUG codon appears at the end of the kinase domain such that only the entire PH domain of PDK1 is translated; made in house; host or cells: in vitro transcription/translation (reticulocyte lysate) of a clone from a murine spleen cDNA library in pCS2(+)
T4 sequence (Q9Z2A0 462-553 limits assumed): T3 sequence (O15530 459-550 limits assumed) with R88Q, H92N
Experimental: as §1, with “The gel was then dried and subjected to autoradiography.” left out

[6] = molecular target: MBP-Akt PH fusion protein (Mus musculus, UniProt P31750); experiment: Competition binding of non-biotinylated lipids against biotinylated PtdIns-3,4,5-P3 on avidin beads; conditions: FIG. 2C legend; compared with PtdIns-4,5-P2
MBP-Akt PH fusion protein, sequence (P31750 1-130): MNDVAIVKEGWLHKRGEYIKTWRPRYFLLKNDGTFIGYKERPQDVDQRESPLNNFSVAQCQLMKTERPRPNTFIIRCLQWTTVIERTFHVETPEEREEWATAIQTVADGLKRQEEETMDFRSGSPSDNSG
Experimental: The proteins were expressed by transcribing/translating 0.01-1 μg of DNA of MBP or MBP-Akt PH with the Promega TnT Coupled Reticulocyte Lysate System using SP6 RNA polymerase and ^35S-methionine (in vivo labeling grade, Amersham) according to the manufacturers protocol.
Binding and Isolation of Radiolabeled In Vitro Translated Proteins with Biotinylated Phosphoinositides. Avidin beads (Ultralink immobilized Neutravidin™, Pierce Chemical) were washed twice with 5 volumes of wash/binding (WB) buffer (10 mM HEPES pH=7.4, 150 mM NaCl, 0.5% NP-40, 5 mM DTT). The beads were then reconstituted in 2×volume of WB buffer and the biotinylated phosphoinositide was added. Generally, 0.1 μl of 100 μM biotinylated lipid was bound per 1 μl of packed avidin beads. The biotinylated lipid was incubated with the beads for 1-2 hours at 4° C. with gentle agitation and then washed twice with 10×-bead volume of WB buffer to remove excess ligand. […]
Competition Binding of Isolated Proteins for Non-biotinylated Lipids over Biotinylated Lipids. […] Binding was quantitated by measuring the intensities of bands from the autoradiogram or by scintillation counting of the eluted proteins in Laemmli sample buffer using Opti-fluor (Packard). […]

PH domain of Akt, sequence (P31749 5-108 limits assumed): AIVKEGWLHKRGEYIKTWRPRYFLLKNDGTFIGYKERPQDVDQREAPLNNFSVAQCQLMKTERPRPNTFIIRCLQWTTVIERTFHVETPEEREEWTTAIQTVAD

Row | Substance | relative affinity for PHISH in competition binding studies [1] | displacement of PHISH from PtdIns-3,4,5-P3-biotin bound to avidin beads [1] | binding to the PH domain of EST684797 [2] | affinity for the PH domain of PDK1 [3] | rank order of affinities for the PH domain of Akt [4] | binding of the expressed purified PDK1 fragment (single clone) [5] | displacement of MBP-PH from PtdIns-3,4,5-P3-biotin [6]
1 | phosphatidylinositol-3,4,5-trisphosphate [PtdIns-3,4,5-P3] | equal affinity | preferentially displace | binds tightly and selectively | four-fold higher affinity |  |  | 
2 | phosphatidylinositol-3,4-bisphosphate [PtdIns-3,4-P2] | equal affinity | preferentially displace | binds tightly and selectively |  | PtdIns-3,4,5-P3>PtdIns-3,4-P2>>PtdIns-4,5-P2 | apparent lower affinity than for PtdIns-3,4,5-P3 | preferentially displace
3 | phosphatidylinositol-4,5-bisphosphate [PtdIns-4,5-P2] | significantly lower affinity |  |  | much lower affinity | PtdIns-3,4,5-P3>PtdIns-3,4-P2>>PtdIns-4,5-P2 |  | 

From patent US20020037531A1, “Expression cloning of protein targets for phospholipids” (priority 1999, published 2002)
